Experimental data published in US11633394B2, “Substituted alkynylene compounds as anticancer agents” (Aurigene Oncology Limited, priority 2018, dated 2023).

Tests used:
NCI-H1792 cells = assay: Anti proliferative activity in NCI-H1792 cells by XTT assay; type: cell-based; conditions: H1792 cell line; for IC50: 72 hours incubation; for viability at 30 µM / % Viability (at 30 μM): 72 hours
Method: Example 78: Determination of Anti Proliferative Activity in NCI-H1792 Cells by XTT Assay
NCI-H1792 cells (ATCC CRL-5895) were plated at 2000 cells/well in 96 well flat clear bottom plates (Corning, Cat. No 3596) using complete RPMI media. After 24 hours, compounds of present invention were added to cells from 20 mM stocks made in DMSO (Sigma Cat no. D2650). Each concentration of compound was tested in triplicate with DMSO concentration not exceeding a final percentage of 0.3 in the cells. After 72 hours of incubation in CO2 incubator, XTT (Invitrogen, Cat. no X6493) was added to the wells. XTT was dissolved in serum free media at 1 mg/ml and absorbance readings were taken in spectrophotometer at 465 nm. The data was analysed using graph pad prism software. Positive control (100% survival)=Cells in complete media with 0.3% DMSO; Negative control/blank (0% survival)=Media alone containing 0.3% DMSO.
(§1) The compounds of the present invention were screened in the above mentioned assay and the results are tabulated below.

NCI-H2122 cells = assay: Anti proliferative activity in NCI-H2122 cells by XTT assay; type: cell-based; conditions: H2122 cell line; for IC50: 8 days (192 hour) incubation; for viability at 30 µM: 8 days
Method: Example 79: Determination of Anti Proliferative Activity in NCI-H2122 Cells by XTT Assay
NCI-H2122 cells (ATCC CRL-5985) were plated at 1000 cells/well in 96 well flat clear bottom plates (Corning, Cat. No 3596) using complete RPMI-1640 media. After 24 hours, compounds of present invention were added to cells from 10 mM stocks made in DMSO (Sigma Cat no. D2650). Each concentration of compound was tested in triplicate with DMSO concentration not exceeding a final percentage of 0.3 in the cells. Complete RPMI-1640 media changed at Day 3 (72 hour) and Day 6 (144 hour) along with compounds of current invention. After 8 days (192 hour) of incubation assay terminated using 50 μl of XTT reagent (Invitrogen, Cat. no X6493). XTT reagent was made by dissolving 1 mg/mi XTT in serum free media with addition of 25 μM Phenazine methosulfate (sigma Cat. no P9625). Absorbance readings were taken in spectrophotometer at 465 nm. The data was analysed using graph pad prism software. Positive control (100% survival)=Cells in complete media with 0.3% DMSO; Negative control/blank (0% survival)=Media alone containing 0.3% DMSO.
as §1

Row | Compound | IC50 (NCI-H1792 cells; Homo sapiens, NCI-H1792, 72 h) | viability at 30 µM (NCI-H1792 cells; Homo sapiens, NCI-H1792, 72 h) | also measured
1 | C=CC(=O)N1CCN(C(=O)NC(C)C#Cc2ccc(Cl)c(NC(C)=O)c2)CC1 (racemic) [Example 40, N-(4-(3-acetamido-4-chlorophenyl)but-3-yn-2-yl)-4-acryloylpiperazine-1-carboxamide] | – | – | IC50 (NCI-H2122 cells; Homo sapiens, NCI-H2122, 192 h): 10 to 25 µM
2 | C=C(C)C(=O)N1CCN(C(=O)NC(C)C#Cc2ccc(Cl)c(Cl)c2)CC1 (racemic) [Example 43, N-(4-(3,4-dichlorophenyl)but-3-yn-2-yl)-4-methacryloylpiperazine-1-carboxamide] | – | – | IC50 (NCI-H2122 cells; Homo sapiens, NCI-H2122, 192 h): > 25 µM; viability at 30 µM (NCI-H2122 cells; Homo sapiens, NCI-H2122, 192 h): 78%
3 | CC(C#Cc1ccc(Cl)c(Cl)c1)NC(=O)N1CCN(C(=O)C2(C#N)CC2)CC1 (racemic) [Example 44, 4-(1-cyanocyclopropane-1-carbonyl)-N-(4-(3,4-dichlorophenyl)but-3-yn-2-yl) piperazine-1-carboxamide] | – | – | IC50 (NCI-H2122 cells; Homo sapiens, NCI-H2122, 192 h): > 25 µM; viability at 30 µM (NCI-H2122 cells; Homo sapiens, NCI-H2122, 192 h): 99%
4 | CC(C#Cc1ccc(Cl)c(Cl)c1)NC(=O)N1CCN(C(=O)/C=C/CN(C)C)CC1 (racemic) [Example 47, (E)-N-(4-(3,4-dichlorophenyl)but-3-yn-2-yl)-4-(4-(dimethylamino)but-2-enoyl) piperazine-1-carboxamide] | < 10 µM | 26% | –
5 | C=CS(=O)(=O)NC1CCN(C(=O)NC(C)C#Cc2ccc(Cl)c(Cl)c2)CC1 (racemic) [Example 49, N-(4-(3,4-dichlorophenyl)but-3-yn-2-yl)-4-(vinylsulfonamido) piperidine-1-carboxamide] | 10 to 25 µM | 35% | –
6 | C=CS(=O)(=O)N[C@H]1CC[C@H](C(=O)NC(C)C#Cc2ccc(Cl)c(Cl)c2)CC1 (mixture of isomers) [Example 75, (1r,4r)-N-(4-(3,4-dichlorophenyl)but-3-yn-2-yl)-4-(vinylsulfonamido) cyclohexane-1-carboxamide] | < 10 µM | 10% | –
7 | C=CC(=O)Nc1ccc(C(=O)NC(C)C#Cc2ccc(Cl)c(Cl)c2)cc1 (racemic) [Example 76, 4-acrylamido-N-(4-(3,4-dichlorophenyl)but-3-yn-2-yl)benzamide] | < 10 µM | 26% | –
8 | CC(C#Cc1ccc(Cl)c(Cl)c1)NC(=O)N1CCN(C(=O)C2CC(Br)=NO2)CC1 (racemic) [Example 77, 4-(3-bromo-4,5-dihydroisoxazole-5-carbonyl)-N-(4-(3,4-dichlorophenyl)but-3-yn-2-yl)piperazine-1-carboxamide(±)] | – | – | IC50 (NCI-H2122 cells; Homo sapiens, NCI-H2122, 192 h): 10 to 25 µM
9 | C=CC(=O)N1CCN(C(=O)NC(C)C#Cc2ccc(Cl)c(Cl)c2)CC1 (single isomer, unassigned) [Example 1b, 4-acryloyl-N-(4-(3,4-dichlorophenyl)but-3-yn-2-yl) piperazine-1-carboxamide] | – | – | IC50 (NCI-H1792 cells): 10 to 25 µM; % Viability (at 30 μM) (NCI-H1792 cells): 37%
10 | C=CC(=O)N1CCN(C(=O)NC(C#Cc2ccc(Cl)c(Cl)c2)CC)CC1 (single isomer, unassigned) [Example 2a] | – | – | IC50 (NCI-H1792 cells): > 25 µM; % Viability (at 30 μM) (NCI-H1792 cells): 56%
11 | C=CC(=O)N1CCN(C(=O)NC(C#Cc2ccc(Cl)c(Cl)c2)CC)CC1 (single isomer, unassigned) [Example 2b] | – | 57% | IC50 (NCI-H1792 cells): 10 to 25 µM
12 | C=CC(=O)N(C)[C@@H]1CCCC[C@H]1N(C)C(=O)NC(C)C#Cc1ccc(Cl)c(Cl)c1 (single isomer, unassigned) [Example 48a] | – | – | IC50 (NCI-H2122 cells): > 25 µM
13 | C=CC(=O)N(C)[C@@H]1CCCC[C@H]1N(C)C(=O)NC(C)C#Cc1ccc(Cl)c(Cl)c1 (single isomer, unassigned) [Example 48b] | – | – | IC50 (NCI-H2122 cells): 10 to 25 µM
14 | C=CC(=O)N1CCN(C(=O)NC(C)C#Cc2ccc(C(F)(F)F)c(Cl)c2)CC1 (centres unmarked) [Example 6] | 10 to 25 µM | 19% | –

Continued, in another order:

Row | IC50 (NCI-H1792 cells; Homo sapiens, NCI-H1792, 72 h) | Compound | viability at 30 µM (NCI-H1792 cells; Homo sapiens, NCI-H1792, 72 h) | also measured
15 | < 10 µM | C=CC(=O)N1CCN(C(=O)NC(C)C#Cc2ccc(Cl)c(Cl)c2)CC1 (racemic) [Example 1, 4-acryloyl-N-(4-(3,4-dichlorophenyl)but-3-yn-2-yl) piperazine-1-carboxamide] | 40% | –
16 | < 10 µM | C=CC(=O)N1CCN(C(=O)NC(C#Cc2ccc(Cl)c(Cl)c2)CC)CC1 (racemic) [Example 2, 4-acryloyl-N-(1-(3,4-dichlorophenyl)pent-1-yn-3-yl)piperazine-1-carboxamide] | 22% | –
17 | > 25 µM | CC(C#Cc1ccc(Cl)c(Cl)c1)NC(=O)N1CCN(C(=O)/C=C/C(N)=O)CC1 (racemic) [Example 65, (E)-4-(4-amino-4-oxobut-2-enoyl)-N-(4-(3,4-dichlorophenyl)but-3-yn-2-yl) piperazine-1-carboxamide] | 73% | –
18 | 10 to 25 µM | C=CC(=O)N1CCN(C(=S)NC(C)C#Cc2ccc(Cl)c(Cl)c2)CC1 (racemic) [Example 69, 4-Acryloyl-N-(4-(3,4-dichlorophenyl)but-3-yn-2-yl) piperazine-1-carbothioamide] | 18% | –
19 | 10 to 25 µM | C=CC(=O)N1CCN(C(=O)NC(C#Cc2ccc(Cl)c(Cl)c2)C(C)C)CC1 (centres unmarked) [Example 4] | 15% | –
20 | 10 to 25 µM | C=CC(=O)N1CCN(C(=O)NC(C)C#Cc2ccc(C)c(Cl)c2)CC1 (centres unmarked) [Example 7] | 33% | –
21 | < 10 µM | C=CC(=O)N1CC(N2CCN(C(=O)NC(C)C#Cc3ccc(Cl)c(Cl)c3)CC2)C1 (centres unmarked) [Example 8] | 35% | –
